Data from patent US12441733B2, “Substituted 2,4-dioxotetrahydropyrimidines as intermediates in the synthesis of bruton's tyrosine kinase inhibitors” (Novartis AG, priority 2018, dated 2025).

These compounds were tested on TMD8 cells (assay: Resazurin cell viability (proliferation) assay in TMD8 DLBCL cells). Details: Homo sapiens, TMD8 cells (BTK dependent), 72 h, 50% growth inhibition vs vehicle, read-out: TMD8 Prol GI50.
Format: cell-based
How it was run: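 TMD8 cells were seeded at 1×10^4 per well and treated 3 h later with compound, in an 8-point 1:4 dilution series starting at 1 μM, or DMSO, for 72 h at 37° C. Resazurin was added at 13 μg/ml final for the last 2 h, and fluorescence was read at ex 530/em 600 nm. GI50 versus vehicle was derived by curve fitting from triplicates.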

`COc1ccc(C(=O)N2CCC3(CCN(Cc4ccc(-c5cc6c(-c7cc(F)cc(NC(=O)c8ccc(C(C)(C)O)cc8F)c7C)ncnc6[nH]5)cc4)CC3)CC2)cc1N1CCC(=O)NC1=O` [Compound 9, N-(3-(6-(4-((9-(3-(2,4-Dioxotetrahydropyrimidin-1(2H)-yl)-4-methoxybenzoyl)-3,9-diazaspiro[5.5]undecan-3-yl)methyl)phenyl)-7H-pyrrolo[2.3-d]pyrimidin-4-yl)-5-fluoro-2-methylphenyl)-2-fluoro-4-(2-hydroxypropan-2-yl)benzamide] and `COc1ccc(C(=O)N2CCC3(CC2)CCN(C(C)(C)Cc2ccc(-c4cc5c(-c6cc(F)cc(NC(=O)c7ccc(C(C)(C)O)cc7F)c6C)ncnc5[nH]4)cc2)CC3)cc1N1CCC(=O)NC1=O` [Compound 20, N-(3-(6-(4-(2-(9-(3-(2,4-Dioxotetrahydropyrimidin-1(2H)-yl)-4-methoxybenzoyl)-3,9-diazaspiro[5.5]undecan-3-yl)-2-methylpropyl)phenyl)-7H-pyrrolo[2,3-d]pyrimidin-4-yl)-5-fluoro-2-methylphenyl)-2-fluoro-4-(2-hydroxypropan-2-yl)benzamide] are within 1.5-fold of each other in GI50: 0.52 nM for the first, 0.53 nM for the second.

First: Cc1ccc(C(=O)N2CCC3(CCN(CCc4ccc(-c5cc6c(-c7cc(F)cc(NC(=O)c8ccc(C(C)(C)O)cc8F)c7C)ncnc6[nH]5)cc4)CC3)CC2)cc1N1CCC(=O)NC1=O [Compound 5, N-(3-(6-(4-(2-(9-(3-(2,4-Dioxotetrahydropyrimidin-1(2H)-yl)-4-methylbenzoyl)-3,9-diazaspiro[5.5]undecan-3-yl)ethyl)phenyl)-7H-pyrrolo[2,3-d]pyrimidin-4-yl)-5-fluoro-2-methylphenyl)-2-fluoro-4-(2-hydroxypropan-2-yl)benzamide]
Second: COc1ccc(C(=O)NCCN2CCC3(CC2)CCN(Cc2ccc(-c4cc5c(-c6cc(F)cc(NC(=O)c7ccc(C(C)(C)O)cc7F)c6C)ncnc5[nH]4)cc2)CC3)cc1N1CCC(=O)NC1=O [Compound 44, N-(3-(6-(4-((9-(2-(3-(2,4-dioxotetrahydropyrimidin-1(2H)-yl)-4-methoxybenzamido)ethyl)-3,9-diazaspiro[5.5]undecan-3-yl)methyl)phenyl)-7H-pyrrolo[2,3-d]pyrimidin-4-yl)-5-fluoro-2-methylphenyl)-2-fluoro-4-(2-hydroxypropan-2-yl)benzamide]
The GI50 of the first is 8-fold lower: 0.47 nM for the first, 3.74 nM for the second.

Going from `Cc1c(NC(=O)c2ccc(C(C)(C)O)cc2F)cc(F)cc1-c1ncnc2[nH]c(-c3ccc(COC4CCN(CCC5CCN(C(=O)c6ccc(F)c(N7CCC(=O)NC7=O)c6)CC5)CC4)cc3)cc12` [Compound 6, N-(3-(6-(4-(((1-(2(1-(3-(2,4-dioxotetrahydropyrimidin-1(2H)-yl)-4-fluorobenzoyl)piperidin-4-yl)ethyl)piperidin-4-yl)oxyl)methyl)phenyl)-7H-pyrrolo[2,3-d]pyrimidin-4-yl)-5-fluoro-2-methylphenyl)-2-fluoro-4-(2-hydroxypropan-2-yl)benzamide] to `COc1ccc(C(=O)NCCN2CCOC3(CCN(Cc4ccc(-c5cc6c(-c7cc(F)cc(NC(=O)c8ccc(C(C)(C)O)cc8F)c7C)ncnc6[nH]5)cc4)CC3)C2)cc1N1CCC(=O)NC1=O` [Compound 39, N-(3-(6-(4-((4-(2-(3-(2,4-dioxotetrahydropyrimidin-1(2H)-yl)-4-methoxybenzamido)ethyl)-1-oxa-4,9-diazaspiro[5.5]undecan-9-yl)methyl)phenyl)-7H-pyrrolo[2,3-d]pyrimidin-4-yl)-5-fluoro-2-methylphenyl)-2-fluoro-4-(2-hydroxypropan-2-yl)benzamide], the GI50 rises from 0.53 nM to 4.79 nM (9-fold).

`Cc1cc(F)c(C(=O)NCCCCCNCc2ccc(-c3cc4c(-c5cc(F)cc(NC(=O)c6ccc(C(C)(C)O)cc6F)c5C)ncnc4[nH]3)cc2)cc1N1CCC(=O)NC1=O` [Compound 29, 5-(2,4-Dioxotetrahydropyrimidin-1(2H)-yl)-2-fluoro-N—(S-((4-(4-(5-fluoro-3-(2-fluoro-4-(2-hydroxypropan-2-yl)benzamido)-2-methylphenyl)-7H-pyrrolo[2,3-d]pyrimidin-6-yl)benzyl)amino)pentyl)-4-methylbenzamide] showed a GI50 of 2.25 nM.
